Experimental data published in patent US20250026765A1, “SPIROHETEROCYCLE DERIVATIVE HAVING SEROTONIN RECEPTOR BINDING ACTIVITY” (Shionogi & Co., Ltd., priority 2021, published 2025).
Read-outs that look alike come from different tables or passages of the source.

How the values were obtained:
[1] = target: human recombinant 5-HT2C receptor (Homo sapiens (Human), UniProt P28335); test: 5-HT2C receptor binding inhibition test ([3H]-Mesulergine); conditions: Jump-In HEK cell membrane, 37° C. 2 hours
Procedure: Test Example 2: 5-HT2C Receptor Binding Inhibition Test
(§1) (Each Experimental Condition)
Cell membrane: 0.5 μg of Jump-In HEK cell membrane (expressing human recombinant 5-HT2C receptor) per well
(§2) Assay buffer: Tris-HCl 50 mmol/L (pH 7.4) containing NaCl 120 mmol/L, MgCl2·6H2O 1 mmol/L, KCl 5 mmol/L, 0.1% BSA and CaCl2 2 mmol/L
Radioactive ligand: [^3H]-Mesulergine with a final concentration of around Kd value calculated by the following method
Non-specific ligand: Serotonin HCl with a final concentration of […]
(§3) The Kd value is calculated when the lot of cell membrane is changed. In advance, 0.5 μL of a 1 mmol/L compound for non-specific binding calculation dissolved in DMSO or DMSO is dispensed into a microplate, and the cell membrane is diluted with an Assay buffer. The radioactive ligand solution is serially diluted and the count is confirmed with a liquid scintillator. Assay buffer containing diluted cell membrane is dispensed into a microplate at 50 μL/well. Then, the radioactive ligand solution is dispensed into a microplate at 50 μL/well, and the plate is sealed. It is allowed to stand at 37° C. for 2 hours. During this period, 50 mmol/L Tris-HCl (pH 7.4) is dispensed into a GF/B UniFilter plate at 50 μL/well and allowed to stand at 4° C. for 1 hour or longer. After that, filtration is performed with Cell harvester (PerkinElmer). The radioactive ligand solution is dispensed into an empty well of the GF/B UniFilter plate at 10 μL/well. After the GF/B UniFilter plate is dried at room temperature, MicroScinti 20 is dispensed into the GF/B UniFilter plate at 50 μL/well to seal the plate. The GF/B UniFilter plate is allowed to stand overnight at room temperature. The radioactivity of [^3H]-Mesulergine bound to the 5-HT2C receptor is measured using Microbeta2 (PerkinElmer) at a measurement time of 1 min/well. The Saturation curve is drawn from the measured value, and the Kd value is calculated from the slope of the Scatchard Plot.
(§4) (Binding Test of the Compound According to the Present Invention)
In advance, 0.5 μL of the compound solution dissolved in DMSO is dispensed into a microplate, and the cell membrane and the hot ligand are diluted with Assay buffer, respectively. Then, the Assay buffer containing the diluted cell membrane is dispensed into a microplate at 50 μL/well. Then, the radioactive ligand solution is dispensed into a microplate at 50 μL/well, and the plate is sealed. Then, it is allowed to stand at 37° C. for 2 hours. During this period, 50 mmol/L Tris-HCl (pH 7.4) is dispensed into a GF/B UniFilter plate at 50 μL/well and allowed to stand at 4° C. for 1 hour or longer. After that, filtration is performed with Cell harvester (PerkinElmer). After the GF/B UniFilter plate is dried at room temperature, MicroScinti 20 is dispensed into the GF/B UniFilter plate at 50 μL/well, and the plate is sealed. The GF/B UniFilter plate is allowed to stand overnight at room temperature. The radioactivity of [^3H]-Mesulergine bound to the 5-HT2C receptor is measured using Microbeta2 (PerkinElmer) at a measurement time of 1 min/well. The non-specific binding is calculated from the radioactivity of […] in the presence of 500 μmol/L Serotonin HCl which is the unlabeled ligand, and the total binding is calculated from the radioactivity of [^3H]-Mesulergine in the absence of the compound according to the present invention (Vehicle). Finally, the Ki value is calculated from the dose-response curve.
(§5) (The binding activity of the compound according to the present invention is calculated from the following binding inhibition rate (%).)
(§6) [formula] • a; mean cpm of non-specific binding • b; average cpm of total binding • c; cpm in the presence of the test compound

[2] = target: human recombinant 5-HT2A receptor (Homo sapiens (Human), UniProt P28223); test: 5-HT2A receptor binding inhibition test ([3H]-Ketanserin); conditions: Jump-In HEK cell membrane, 25° C. 1.5 hours
Procedure: Test Example 1: 5-HT2A Receptor Binding Inhibition Test
as §1
Cell membrane: 15 μg of Jump-In HEK cell membrane (expressing human recombinant 5-HT2A receptor) per well
as §2
Radioactive ligand: [^3H]-Ketanserin with a final concentration of around Kd value calculated by the following method
Non-specific ligand: Serotonin HCl with a final concentration of 500 μmol/L
as §3, with “at room temperature (25° C.)” for “at 37° C.”, “for 1.5” for “for 2”, “of [^3H]-Ketanserin” for “of [^3H]-Mesulergine”, “the 5-HT2A” for “the 5-HT2C”
as §4
In advance, 0.5 μL of the compound solution dissolved in DMSO is dispensed into a microplate, and the cell membrane and the hot ligand are diluted with Assay buffer, respectively. Then, the Assay buffer containing the diluted cell membrane is dispensed into a microplate at 50 μL/well. Then, the radioactive ligand solution is dispensed into a microplate at 50 μL/well, and the plate is sealed. Then, it is allowed to stand at room temperature (25° C.) for 1.5 hours. During this period, 50 mmol/L Tris-HCl (pH 7.4) is dispensed into a GF/B UniFilter plate at 50 μL/well and allowed to stand at 4° C. for 1 hour or longer. After that, filtration is performed with Cell harvester (PerkinElmer). After the GF/B UniFilter plate is dried at room temperature, MicroScinti 20 is dispensed into the GF/B UniFilter plate at 50 μL/well to seal the plate. The GF/B UniFilter plate is allowed to stand overnight at room temperature. The radioactivity of [^3H]-Ketanserin bound to the 5-HT2A receptor is measured using Microbeta2 (PerkinElmer) at a measurement time of 1 min/well. The non-specific binding is calculated from the radioactivity of [^3H]-Ketanserin in the presence of 500 μmol/L Serotonin HCl which is the unlabeled ligand, and the total binding is calculated from the radioactivity of [^3H]-Ketanserin in the absence of the compound according to the present invention (Vehicle). Finally, the Ki value is calculated from the dose-response curve.
as §5, §6

[3] = read-out: human serotonin 5-HT2C receptor binding activity Ki
[4] = read-out: human serotonin 5-HT2A receptor binding activity Ki

Chain of human recombinant 5-HT2C receptor (P28335 33-458): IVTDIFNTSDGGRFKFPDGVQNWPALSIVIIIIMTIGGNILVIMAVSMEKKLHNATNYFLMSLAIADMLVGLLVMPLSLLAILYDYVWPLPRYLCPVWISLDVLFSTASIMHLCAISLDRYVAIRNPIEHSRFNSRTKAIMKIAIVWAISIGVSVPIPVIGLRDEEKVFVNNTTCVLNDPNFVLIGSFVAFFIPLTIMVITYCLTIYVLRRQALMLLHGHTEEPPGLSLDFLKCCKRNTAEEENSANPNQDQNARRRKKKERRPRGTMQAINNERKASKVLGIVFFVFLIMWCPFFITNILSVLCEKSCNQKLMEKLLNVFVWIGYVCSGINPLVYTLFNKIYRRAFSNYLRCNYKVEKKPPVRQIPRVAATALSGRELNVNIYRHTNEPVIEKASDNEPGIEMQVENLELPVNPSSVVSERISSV
Chain of human recombinant 5-HT2A receptor (P28223 whole entry): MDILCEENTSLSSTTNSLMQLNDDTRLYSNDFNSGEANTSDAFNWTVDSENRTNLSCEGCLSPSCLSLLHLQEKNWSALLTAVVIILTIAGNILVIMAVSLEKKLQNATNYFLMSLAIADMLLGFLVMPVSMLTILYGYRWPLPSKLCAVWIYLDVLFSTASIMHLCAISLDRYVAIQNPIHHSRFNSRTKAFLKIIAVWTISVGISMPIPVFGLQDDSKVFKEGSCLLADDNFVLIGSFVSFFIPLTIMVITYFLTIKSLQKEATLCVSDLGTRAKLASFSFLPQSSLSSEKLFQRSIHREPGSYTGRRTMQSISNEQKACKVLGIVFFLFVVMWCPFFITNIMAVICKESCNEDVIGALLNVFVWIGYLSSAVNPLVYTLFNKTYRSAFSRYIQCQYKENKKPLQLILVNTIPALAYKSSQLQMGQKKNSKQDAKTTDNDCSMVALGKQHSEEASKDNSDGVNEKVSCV

Row | SMILES | Ki ([1]; read-out: h-5-HT2C Ki) [µM] | Ki ([2]; read-out: h-5-HT2A Ki) [µM] | Ki [1, 3] [µM] | Ki [2, 4] [µM]
1 | CCCCc1ccc(CN(Cc2coc(C)n2)C2=NOC3(CCN(C)CC3)N2)cc1 [Compound I-077] | < 0.01 | < 0.01 |  | 
2 | CC(C)COc1ccc(CN(Cc2ccc(F)cn2)C2=NOC3(CCN(C)CC3)N2)cc1 [Compound I-007] | 0.01 to 0.1 | < 0.01 |  | 
3 | CCCOc1ccc(CC2=NOC3(CCN(C)CC3)N2Cc2ccc(F)cn2)cc1 [Compound I-024] | 0.01 to 0.1 | < 0.01 |  | 
4 | Cc1nc(CN(Cc2cc3ccccc3s2)C2=NOC3(CCN(C)CC3)N2)co1 [Compound I-123] | < 0.01 | < 0.01 |  | 
5 | Cc1nc(CN(Cc2ccc(OCC(F)(F)C(F)F)cc2)C2=NOC3(CCN(C)CC3)N2)co1 [Compound I-064] | < 0.01 | < 0.01 |  | 
6 | Cc1nc(CN(Cc2ccc(OCC(F)(F)C(F)(F)F)cc2)C2=NOC3(CCN(C)CC3)N2)co1 [Compound I-082] | < 0.01 | < 0.01 |  | 
7 | CCCc1ccc(CN(Cc2coc(C)n2)C2=NOC3(CCN(C)CC3)N2)cc1F [Compound I-110] | < 0.01 | < 0.01 |  | 
8 | CCCOc1ccc(CC2=NOC3(CCN(C)CC3)N2Cc2ccn(C)n2)cc1 [Compound I-025] | 0.01 to 0.1 | 0.01 to 0.1 |  | 
9 | CC(C)COc1ccc(CN(Cc2cn(C)cn2)C2=NOC3(CCN(C)CC3)N2)cc1 [Compound I-019] | 0.1 to 0.5 | < 0.01 |  | 
10 | Cc1nc(CN(Cc2ccc(Cc3ccccc3)cc2)C2=NOC3(CCN(C)CC3)N2)co1 [Compound I-119] | < 0.01 | < 0.01 |  | 
11 | CCCOc1ccc(CC2=NOC3(CCN(C)CC34CC4)N2Cc2ccc(F)cn2)cc1 (stereo not shown) [Compound I-026] | < 0.01 | < 0.01 |  | 
12 | CN1CCC2(CC1)NC(N(Cc1ccc(OCC(F)(F)F)cc1)Cc1coc(C3CC3)n1)=NO2 [Compound I-086] | < 0.01 | < 0.01 |  | 
13 | CN1CCC2(CC1)NC(N(Cc1coc(C3CC3)n1)Cc1ccc(OCC(F)(F)F)cc1F)=NO2 [Compound I-108] | < 0.01 | < 0.01 |  | 
14 | Cc1nc(CN(Cc2cc3ccc(Br)cc3s2)C2=NOC3(CCN(C)CC3)N2)co1 [Compound I-102] | < 0.01 | < 0.01 |  | 
15 | Cc1nc(CN(Cc2ccc(OCC3CC3)cc2)C2=NOC3(CCN(C)CC3)N2)co1 [Compound I-079] | < 0.01 | < 0.01 |  | 
16 | Cc1nc(CN(Cc2ccc(OCC(C)(F)F)cc2)C2=NOC3(CCN(C)CC3)N2)co1 [Compound I-065] | < 0.01 | < 0.01 |  | 
17 | Cc1nc(CN(Cc2ccc(OCC(C)C)cc2)C2=NOC3(CCN(C)CC3)N2)no1 [Compound I-018] | < 0.01 | 0.01 to 0.1 |  | 
18 | COc1ccc(CNC2=NOC3(CCN(C)CC3)N2Cc2ccc(F)cc2)cc1 [Compound I-006] |  | 0.1 to 0.5 |  | 

Next, values leading:

Row | Ki ([1]; read-out: h-5-HT2C Ki) [µM] | Ki ([2]; read-out: h-5-HT2A Ki) [µM] | Ki [1, 3] [µM] | Ki [2, 4] [µM] | SMILES
19 | 0.01 to 0.1 | < 0.01 |  |  | Cc1nc(CN(Cc2ccc3ncccc3c2)C2=NOC3(CCN(C)CC3)N2)co1 [Compound I-096]
20 |  |  | 0.00221 | 0.00189 | CCCOc1ccc(CC2=NOC3(CCN(C)CC34CC4)N2Cc2ccn(C)n2)cc1 (stereo not shown) [Compound I-027]
21 |  |  | 0.000787 | 0.00111 | CCCc1ccc(CN(Cc2coc(C)n2)C2=NOC3(CCN(C)CC3)N2)cc1 [Compound I-087]
22 | 0.1 to 0.5 | < 0.01 |  |  | Cc1ccc(CN(Cc2ccc(OCC(C)C)cc2)C2=NOC3(CCNCC3)N2)cn1 [Compound I-078]
23 | 0.1 to 0.5 | 0.1 to 0.5 |  |  | Cc1nc(CN(Cc2ccc(OCC(C)C)cc2)C2=NC3(CCNCC3)ON2C)co1 [Compound I-051]
24 | 0.1 to 0.5 | 0.01 to 0.1 |  |  | Cc1cc(CN(Cc2ccc(OCC(C)C)cc2)C2=NOC3(CCN(C)CC3)N2)on1 [Compound I-076]
25 | < 0.01 | < 0.01 |  |  | CCCOc1ccc(CC2=NOC3(CCNCC34CC4)N2Cc2ccn(C)n2)cc1 (racemic) [Compound I-037]
26 | 0.01 to 0.1 | < 0.01 |  |  | CC(C)COc1ccc(CN(Cc2ccc(F)cc2)C2=NOC3(CCN(C)CC3)N2)cc1 [Compound I-055]
27 | 0.1 to 0.5 | 0.1 to 0.5 |  |  | CCCOc1ccc(CNC2=NOC3(CCN(C)CC34CC4)N2Cc2ccn(C)n2)cc1 (racemic) [Compound I-040]
28 | 0.01 to 0.1 | 0.01 to 0.1 |  |  | Cc1nc(CN(Cc2ccc(OCC(C)C)cc2)C2=NOC3(CCN(C)CC3)N2)c(C)o1 [Compound I-117]
29 | 0.01 to 0.1 | < 0.01 |  |  | COc1ccc(CC2=NOC3(CCN(C)CC34CC4)N2Cc2cc(C)n(C)n2)cc1 (racemic) [Compound I-034]
30 | < 0.01 | 0.01 to 0.1 |  |  | Cc1nc(CN(Cc2ccsc2)C2=NOC3(CCN(C)CC3)N2)co1 [Compound I-073]
31 | 0.1 to 0.5 | 0.01 to 0.1 |  |  | CC(C)COc1ccc(CN(Cc2cnn(C)c2)C2=NOC3(CCN(C)CC3)N2)cc1 [Compound I-046]
32 |  | 0.1 to 0.5 |  |  | CN1CCC2(CC1)NC(N(CC(=O)Nc1ccc(Cl)cc1)Cc1ccn(C)n1)=NO2 [Compound I-056]
33 |  | 0.01 to 0.1 |  |  | Cc1ccc(CN(Cc2ccc(OCC(C)C)cc2)C2=NC(=O)C3(CCN(C)CC3)N2)cn1 [Compound I-059]
34 | 0.01 to 0.1 |  |  |  | CC(C)COc1ccc(CN(Cc2ccc(F)cc2)C2=NOC3(CCN(C)CC3)N2)cc1 [Compound I-060]
